Laboratory results from patent publication US20150157783A1, “METHOD TO SELECTIVELY BIND AND EXTRACT PHOSPHATE” (priority 2013, published 2015).

Assays:
[1] = UV-Vis titration, 1:1 binding of dihydrogen phosphate (Bu4N+ salt) in aqueous DMSO; settings: for Binding constant (1:1) to H2PO4^−: 25% aqueous DMSO (v/v)
Experimental: (§1) Their interactions with anion salts were investigated in various aqueous dimethylsulfoxide (DMSO) mixtures.
(§2) Dilute non-aggregating solutions of a receptor S were titrated with a given anion X^− via a solution of its tetrabutylammonium salt and were monitored by UV-VIS spectrometery. UV absorption spectra (250-600 nm) were recorded three times for each solution and average values for each point were used; all of the spectra were background corrected by subtracting the absorption of the solvent. The wavelength with the maximum change in the concentration corrected absorption (Acor=A·C0/C, where C and C0 are the current and the initial receptor concentrations) was determined and then used for further analysis. Absorptions were plotted versus anion concentrations and the binding constants were determined by an iterative non-linear least squares curve fitting routine implemented in Excel using the equations below. Observed and calculated absorptions are given for each titration in the corresponding Tables and Figures.
(§3) K: binding constant for 1:1 complex formation
(§4) [S]:free receptor concentration
(§5) [S]0:total receptor concentration
(§6) [SX]:bound receptor concentration
(§7) [X]0:total anion concentration
(§8) A: absorption of the solution
(§9) A0:absorption of the initial solution (no anion added)
(§10) Amax:absorption of the solution if all the receptor was bound (infinite excess of anion at the initial receptor concentration)
(§11) In cases where there is a large excess of the anion, [X] about equals [X]0, and the plot of ΔAcor/[X] versus ΔAcor gives a straight line where the slope of the linear least squares fit of the data is the binding constant (K) and the intercept is K·ΔAmax:
(§12) with ΔAcor=(A−A0)·C0/C, where C and C0 are the current and the initial receptor concentrations; ΔAmax=Amax−A0.

[2] = UV-Vis titration, 1:1 binding of acetate (Bu4N+ salt) in aqueous DMSO; settings: for Binding constant (1:1) to OAc^−: 25% aqueous DMSO (v/v)
Experimental: as §1, §2, §3, §4, §5, §6, §7, §8, §9, §10, §11, §12

[3] = Solubility of receptor (qualitative)
[4] = UV-Vis titration, 1:1 binding of chloride (Bu4N+ salt) in aqueous DMSO; settings: 25% aqueous DMSO (v/v)
Experimental: as §1, §2, §3, §4, §5, §6, §7, §8
A0:absorption of the initial solution (no anion added) […]

| Structure (SMILES) | K1-bis/K1-mono for dihydrogen phosphate ([1]; 25% aqueous DMSO) | Binding constant (1:1) to H2PO4^− [1] | Binding constant (1:1) to OAc^− [2] | solubility [3] | acetate binding strength relative to 1-mono ([2]; 25% aqueous DMSO) | Binding constant K of 1:1 adduct with H2PO4^− ([1]; 0.5% DMSO-H2O mixture, 0-1 equivalents of anion) | association constant relative to the statistical value (36 M^−1) expected for one-arm binding of H2PO4^− ([1]; 25% aqueous DMSO) | Binding constant (1:1) to Cl^− [4] |
| --- | --- | --- | --- | --- | --- | --- | --- | --- |
| O=[N+]([O-])c1ccc(NC(=S)Nc2ccccc2-c2cccc(-c3ccccc3NC(=S)Nc3ccc([N+](=O)[O-])cc3)c2)cc1 [1-bis, 1,3-bis[2-(3-(4—Nitrophenyl)thioureido)phenyl]benzene] | about 2 | 28 M⁻¹ |  |  |  |  |  |  |
| O=[N+]([O-])c1ccc(NC(=S)Nc2ccccc2)cc1 [1-mono, 1-(4—Nitrophenyl)-3-phenylthiourea] |  | 12 M⁻¹ | 12 M⁻¹ |  |  |  |  |  |
| O=[N+]([O-])c1ccc(NC(=S)Nc2ccccc2-c2cc(-c3ccccc3NC(=S)Nc3ccc([N+](=O)[O-])cc3)cc(-c3ccccc3NC(=S)Nc3ccc([N+](=O)[O-])cc3)c2)cc1 [1-tris, 1,3,5-tris[2-(3-(4—Nitrophenyl)thioureido)phenyl]benzene] |  | 4000 M⁻¹ | 35 M⁻¹ | low solubility | three times more strongly | > 5e+06 M⁻¹ | more than 100 fold | 1 M⁻¹ |
| FC(F)(F)c1cc(NC(=S)Nc2ccccc2-c2cc(-c3ccccc3NC(=S)Nc3cc(C(F)(F)F)cc(C(F)(F)F)c3)cc(-c3ccccc3NC(=S)Nc3cc(C(F)(F)F)cc(C(F)(F)F)c3)c2)cc(C(F)(F)F)c1 [2-tris, 1,3,5-tris[2-(3-(3,5-Trifluoromethylphenyl)thioureido)phenyl]benzene] |  | 10000 M⁻¹ |  | more soluble |  |  |  |  |
